Read-outs that look alike come from different tables or passages of the source.
Biological target: human OX2R (Homo sapiens (Human), UniProt O43614)
Test: IPOne (IP-1) assay in CHO cells expressing human OX2R
Assay type: cell-based
Settings: for Emax: CHO
How it was run: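 CHO cells stably expressing human OX2R were stimulated with compound (10-point ½-log dilutions) for 2 h at 37 °C. IP-1 accumulation was read by HTRF (IP-One, 665/620 nm). EC50 from a four-parameter fit; % effect relative to 1 μM reference agonist control.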

[1] = percentage of mean max effect of a reference compound at 1 uM (100% activity by comparison to Orexin A), human OX2R, read-out: Emax (%)

Chain of human OX2R (O43614 whole entry): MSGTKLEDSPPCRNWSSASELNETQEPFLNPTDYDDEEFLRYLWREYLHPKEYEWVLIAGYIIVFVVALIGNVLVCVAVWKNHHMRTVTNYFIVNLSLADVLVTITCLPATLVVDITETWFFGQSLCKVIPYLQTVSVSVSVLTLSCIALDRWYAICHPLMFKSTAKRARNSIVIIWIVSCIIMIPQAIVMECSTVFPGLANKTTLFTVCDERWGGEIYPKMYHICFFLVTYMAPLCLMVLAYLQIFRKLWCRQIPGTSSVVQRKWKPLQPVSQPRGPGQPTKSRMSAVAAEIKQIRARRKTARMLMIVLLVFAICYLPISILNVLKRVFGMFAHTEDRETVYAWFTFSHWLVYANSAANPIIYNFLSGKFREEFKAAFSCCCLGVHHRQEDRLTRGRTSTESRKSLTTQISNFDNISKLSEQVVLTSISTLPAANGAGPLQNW

Row | Structure (SMILES) | Emax [1] [%] | Emax [%] | IC50 (CHO cells expressing human OX2R, IP-One detection, 2 hours incubation, EC50 = inflection point of four parameter logistic fit, read-out: hOX2R_IP_IC50) [nM]
1 | C[C@@H]1C[C@H](NS(C)(=O)=O)[C@H](CO[C@H]2CC[C@@]3(c4ncc(F)cn4)C[C@H]3C2)N1C(=O)OCC(C)(F)F [Example 64, 2,2-difluoropropyl (2R,3S,5R)-2-((((1S,3S,6R)-6-(5-fluoropyrimidin-2-yl)bicyclo[4.1.0]heptan-3-yl)oxy)methyl)-5-methyl-3-(methylsulfonamido)pyrrolidine-1-carboxylate] | 101 | – | –
2 | C[C@@H]1C[C@H](NS(C)(=O)=O)[C@H](CO[C@H]2CC[C@@]3(c4ncc(F)cn4)C[C@H]3C2)N1C(=O)OCC(F)(F)F [Example 65, 2,2,2-trifluoroethyl (2R,3S,5R)-2-((((1S,3S,6R)-6-(5-fluoropyrimidin-2-yl)bicyclo[4.1.0]heptan-3-yl)oxy)methyl)-5-methyl-3-(methylsulfonamido)pyrrolidine-1-carboxylate] | 102 | – | –
3 | C[C@@H]1C[C@H](NS(C)(=O)=O)[C@H](CO[C@H]2CC[C@@]3(c4ncc(F)cn4)C[C@H]3C2)N1C(=O)OCC(F)F [Example 66, 2,2-difluoroethyl (2R,3S,5R)-2-((((1S,3S,6R)-6-(5-fluoropyrimidin-2-yl)bicyclo[4.1.0]heptan-3-yl)oxy)methyl)-5-methyl-3-(methylsulfonamido)pyrrolidine-1-carboxylate] | 101 | – | –
4 | COC(=O)N1[C@H](C)C[C@H](NS(=O)(=O)C(F)F)[C@@H]1CO[C@H]1CC[C@@]2(c3ncccn3)C[C@H]2C1 [Example 68, methyl (2R,3S,5R)-3-((difluoromethyl)sulfonamido)-5-methyl-2-((((1S,3S,6R)-6-(pyrimidin-2-yl)bicyclo[4.1.0]heptan-3-yl)oxy)methyl)pyrrolidine-1-carboxylate] | 99.7 | – | –
5 | COC(=O)N1[C@H](C)C[C@H](NS(=O)(=O)C(F)F)[C@@H]1CO[C@@H]1CC[C@]2(c3ncccn3)C[C@@H]2C1 [Example 69, methyl (2R,3S,5R)-3-((difluoromethyl)sulfonamido)-5-methyl-2-((((1R,3R,6S)-6-(pyrimidin-2-yl)bicyclo[4.1.0]heptan-3-yl)oxy)methyl)pyrrolidine-1-carboxylate] | 101 | – | –
6 | COC(=O)N1[C@H](C)C[C@H](NS(C)(=O)=O)[C@@H]1COC1CCC2(c3ncc(Cl)c(OC)n3)CC2C1 (stereo partly drawn) [Example 70, methyl (2R,3S,5R)-2-(((6-(5-chloro-4-methoxypyrimidin-2-yl)bicyclo[4.1.0]heptan-3-yl)oxy)methyl)-5-methyl-3-(methylsulfonamido)pyrrolidine-1-carboxylate] | – | 101 | 33.5
7 | COC(=O)N1[C@H](C)C[C@H](NS(C)(=O)=O)[C@@H]1COC1CCC2(c3nc4c(F)ccc(F)c4s3)CC2C1 (stereo partly drawn) [Example 71, methyl (2R,3S,5R)-2-(((6-(4,7-difluorobenzo[d]thiazol-2-yl)bicyclo[4.1.0]heptan-3-yl)oxy)methyl)-5-methyl-3-(methylsulfonamido)pyrrolidine-1-carboxylate] | 57.9 | – | –
8 | COC(=O)N1[C@H](C)C[C@H](NS(C)(=O)=O)[C@@H]1COC1CCC2(c3ncc(Cl)c(C(F)(F)F)n3)CC2C1 (stereo partly drawn) [Example 72, methyl (2R,3S,5R)-2-(((6-(5-chloro-4-(trifluoromethyl)pyrimidin-2-yl)bicyclo[4.1.0]heptan-3-yl)oxy)methyl)-5-methyl-3-(methylsulfonamido)pyrrolidine-1-carboxylate] | 91.7 | – | –
9 | COC(=O)N1[C@H](C)C[C@H](NS(C)(=O)=O)[C@@H]1COC1CCC2(c3ncc(F)c(C(F)F)n3)CC2C1 (stereo partly drawn) [Example 73, methyl (2R,3S,5R)-2-(((6-(4-(difluoromethyl)-5-fluoropyrimidin-2-yl)bicyclo[4.1.0]heptan-3-yl)oxy)methyl)-5-methyl-3-(methylsulfonamido)pyrrolidine-1-carboxylate] | 90.7 | – | –
10 | COC(=O)N1[C@H](C)C[C@H](NS(C)(=O)=O)[C@@H]1COC1CCC2(c3ncc(F)c(C4CC4)n3)CC2C1 (stereo partly drawn) [Example 74, methyl (2R,3S,5R)-2-(((6-(4-cyclopropyl-5-fluoropyrimidin-2-yl)bicyclo[4.1.0]heptan-3-yl)oxy)methyl)-5-methyl-3-(methylsulfonamido)pyrrolidine-1-carboxylate] | 84 | – | –
